Measured values reported in US10722501B2 (BAYER AKTIENGESELLSCHAFT, priority 2016, dated 2020).

Biological target: T1, recombinant full-length human prolyl endopeptidase (PREP) (Homo sapiens, UniProt P48147)
T1 construct: To recombinant full-length human prolyl endopeptidase (PREP, R&D-Systems, 4308-SE); purchased R&D-Systems 4308-SE
T1 sequence (P48147 1-710): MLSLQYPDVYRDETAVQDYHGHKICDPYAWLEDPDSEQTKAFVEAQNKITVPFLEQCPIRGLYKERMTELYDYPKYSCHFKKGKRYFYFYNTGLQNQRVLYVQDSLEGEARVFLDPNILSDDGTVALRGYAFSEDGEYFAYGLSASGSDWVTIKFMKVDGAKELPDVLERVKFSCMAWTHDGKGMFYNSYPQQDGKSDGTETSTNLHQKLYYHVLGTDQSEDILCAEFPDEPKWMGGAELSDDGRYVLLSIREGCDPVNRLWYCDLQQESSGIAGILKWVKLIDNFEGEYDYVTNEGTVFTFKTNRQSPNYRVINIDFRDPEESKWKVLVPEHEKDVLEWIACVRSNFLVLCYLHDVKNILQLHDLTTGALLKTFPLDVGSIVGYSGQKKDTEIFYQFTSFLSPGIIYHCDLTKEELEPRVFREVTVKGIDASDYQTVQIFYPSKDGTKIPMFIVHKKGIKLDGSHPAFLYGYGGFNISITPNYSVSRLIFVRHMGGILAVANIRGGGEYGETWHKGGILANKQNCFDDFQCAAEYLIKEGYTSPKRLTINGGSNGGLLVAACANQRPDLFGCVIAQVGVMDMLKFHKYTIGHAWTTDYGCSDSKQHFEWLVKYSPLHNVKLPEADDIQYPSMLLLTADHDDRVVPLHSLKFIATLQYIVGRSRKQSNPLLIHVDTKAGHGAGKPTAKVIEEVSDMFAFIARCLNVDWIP
Experiment: Biochemical human prolyl endopeptidase (PREP) assay with fluorescently labelled substrate
Details: substrate Z-Gly-Pro-AMC 50 μM, 32° C., 60 min; some as mean values from multiple independent determinations
Procedure, shortened: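 0.4 nM (final, example) recombinant PREP in pH 7.5 Tris buffer with EDTA, GSH, BSA and Brij-35; compounds at 1 nM to 30 μM. Reaction started with 50 μM Z-Gly-Pro-AMC and followed by fluorescence (ex 360/em 465 nm) at 32° C for 60 min. IC50 interpolated from percent activity based on initial slopes.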

Row | IC50 | SMILES
1 | 0.94 nM | CC1CCC(C(=O)N2C[C@@H](F)[C@@H](F)C2)n2c1nn(Cc1ccnc(C(F)(F)F)c1F)c2=O (mixture of isomers) [Example 322, (5RS,8RS)-5-{[(3R,4S)-3,4-Difluoropyrrolidin-1-yl]carbonyl}-2-{[3-fluoro-2-(trifluoromethyl)pyridin-4-yl]methyl}-8-methyl-5,6,7,8-tetrahydro[1,2,4]triazolo[4,3-a]pyridin-3(2H)-one]
2 | 0.96 nM | CC1CCC(C(=O)N2CCC(F)(F)C2)n2c1nn(Cc1ccc(F)c(Cl)c1)c2=O (racemic) [Example 323, (5RS,8RS)-2-(3-Chloro-4-fluorobenzyl)-5-[(3,3-difluoropyrrolidin-1-yl)carbonyl]-8-methyl-5,6,7,8-tetrahydro[1,2,4]triazolo[4,3-a]pyridin-3(2H)-one]
3 | 1.2 nM | CC1CCC(C(=O)N2C[C@@H](F)[C@@H](F)C2)n2c1nn(Cc1ccc(F)cc1F)c2=O (mixture of isomers) [Example 324, (5RS,8RS)-2-(2,4-Difluorobenzyl)-5-{[(3R,4S)-3,4-difluoropyrrolidin-1-yl]carbonyl}-8-methyl-5,6,7,8-tetrahydro[1,2,4]triazolo[4,3-a]pyridin-3(2H)-one]
4 | 1.5 nM | CC1CCC(C(=O)N2C[C@@H](F)[C@@H](F)C2)n2c1nn(Cc1ccc(C(F)(F)F)nc1)c2=O (mixture of isomers) [Example 325, (5RS,8RS)-5-{[(3R,4S)-3,4-Difluoropyrrolidin-1-yl]carbonyl}-8-methyl-2-{[6-(trifluoromethyl)pyridin-3-yl]methyl}-5,6,7,8-tetrahydro[1,2,4]triazolo[4,3-a]pyridin-3(2H)-one]
5 | 1.5 nM | CC1CCC(C(=O)N2CC[C@H](F)C2)n2c1nn(Cc1ccc(F)cc1F)c2=O (mixture of isomers) [Example 326, (5RS,8RS)-2-(2,4-Difluorobenzyl)-5-{[(3S)-3-fluoropyrrolidin-1-yl]carbonyl}-8-methyl-5,6,7,8-tetrahydro[1,2,4]triazolo[4,3-a]pyridin-3(2H)-one]
6 | 1.9 nM | CC1CCC(C(=O)N2CCC(F)(F)C2)n2c1nn(Cc1ccc(F)cc1F)c2=O (racemic) [Example 327, (5RS,8RS)-2-(2,4-Difluorobenzyl)-5-[(3,3-difluoropyrrolidin-1-yl)carbonyl]-8-methyl-5,6,7,8-tetrahydro[1,2,4]triazolo[4,3-a]pyridin-3(2H)-one]
7 | 4.1 nM | CC1CCC(C(=O)N2CC(F)C2)n2c1nn(Cc1ccc(C(F)(F)F)nc1)c2=O (racemic) [Example 328, (5RS,8RS)-5-[(3-Fluoroazetidin-1-yl)carbonyl]-8-methyl-2-{[6-(trifluoromethyl)pyridin-3-yl]methyl}-5,6,7,8-tetrahydro[1,2,4]triazolo[4,3-a]pyridin-3(2H)-one]
8 | 4.3 nM | CC1CCC(C(=O)N2CC(F)C2)n2c1nn(Cc1ccc(F)cc1F)c2=O (racemic) [Example 329, (5RS,8RS)-2-(2,4-Difluorobenzyl)-5-[(3-fluoroazetidin-1-yl)carbonyl]-8-methyl-5,6,7,8-tetrahydro[1,2,4]triazolo[4,3-a]pyridin-3(2H)-one]
9 | 4.9 nM | CC1CCC(C(=O)N2CCC(F)(F)C2)n2c1nn(Cc1ccc(C(F)(F)F)nc1)c2=O (racemic) [Example 330, (5RS,8RS)-5-[(3,3-Difluoropyrrolidin-1-yl)carbonyl]-8-methyl-2-{[6-(trifluoromethyl)pyridin-3-yl]methyl}-5,6,7,8-tetrahydro[1,2,4]triazolo[4,3-a]pyridin-3(2H)-one]
10 | 0.68 nM | CC1Cc2nn(Cc3ccc(F)c(Cl)c3)c(=O)n2C(C(=O)N2CCC(F)(F)C2)C1 (racemic) [Example 331, (5RS,7RS)-2-(3-Chloro-4-fluorobenzyl)-5-[(3,3-difluoropyrrolidin-1-yl)carbonyl]-7-methyl-5,6,7,8-tetrahydro[1,2,4]triazolo[4,3-a]pyridin-3(2H)-one]
11 | 3.9 nM | CC1Cc2nn(Cc3ccc(C(F)(F)F)nc3)c(=O)n2C(C(=O)N2CCC(F)(F)C2)C1 (racemic) [Example 332, (5RS,7RS)-5-[(3,3-Difluoropyrrolidin-1-yl)carbonyl]-7-methyl-2-{[6-(trifluoromethyl)pyridin-3-yl]methyl}-5,6,7,8-tetrahydro[1,2,4]triazolo[4,3-a]pyridin-3(2H)-one]
12 | 2.1 nM | CC1Cc2nn(Cc3ccnc(C(F)(F)F)c3F)c(=O)n2C(C(=O)N2C[C@@H](F)[C@@H](F)C2)C1 (mixture of isomers) [Example 333, (5RS,7RS)-5-{[(3R,4S)-3,4-Difluoropyrrolidin-1-yl]carbonyl}-2-{[3-fluoro-2-(trifluoromethyl)pyridin-4-yl]methyl}-7-methyl-5,6,7,8-tetrahydro[1,2,4]triazolo[4,3-a]pyridin-3(2H)-one]
13 | 2.95 nM | CC1Cc2nn(Cc3ccnc(C(F)(F)F)c3F)c(=O)n2C(C(=O)N2CCC(F)(F)C2)C1 (racemic) [Example 334, (5RS,7RS)-5-[(3,3-Difluoropyrrolidin-1-yl)carbonyl]-2-{[3-fluoro-2-(trifluoromethyl)pyridin-4-yl]methyl}-7-methyl-5,6,7,8-tetrahydro[1,2,4]triazolo[4,3-a]pyridin-3(2H)-one]
14 | 1.05 nM | CC1Cc2nn(Cc3ccnc(C(F)(F)F)c3F)c(=O)n2C(C(=O)N2CC(F)C2)C1 (racemic) [Example 335, (5RS,7RS)-5-[(3-Fluoroazetidin-1-yl)carbonyl]-2-{[3-fluoro-2-(trifluoromethyl)pyridin-4-yl]methyl}-7-methyl-5,6,7,8-tetrahydro[1,2,4]triazolo[4,3-a]pyridin-3(2H)-one]
15 | 0.66 nM | CC1Cc2nn(Cc3ccc(C(F)(F)F)nc3)c(=O)n2C(C(=O)N2C[C@@H](F)[C@@H](F)C2)C1 (mixture of isomers) [Example 336, (5RS,7RS)-5-{[(3R,4S)-3,4-Difluoropyrrolidin-1-yl]carbonyl}-7-methyl-2-{[6-(trifluoromethyl)pyridin-3-yl]methyl}-5,6,7,8-tetrahydro[1,2,4]triazolo[4,3-a]pyridin-3(2H)-one]
16 | 0.49 nM | CC1Cc2nn(Cc3ccc(F)c(Cl)c3)c(=O)n2C(C(=O)N2C[C@@H](F)[C@@H](F)C2)C1 (mixture of isomers) [Example 339, (5RS,7RS)-2-(3-Chloro-4-fluorobenzyl)-5-{[(3R,4S)-3,4-difluoropyrrolidin-1-yl]carbonyl}-7-methyl-5,6,7,8-tetrahydro[1,2,4]triazolo[4,3-a]pyridin-3(2H)-one]
17 | 0.48 nM | CC1Cc2nn(Cc3ccc(F)c(Cl)c3)c(=O)n2C(C(=O)N2CC(F)C2)C1 (racemic) [Example 340, (5RS,7RS)-2-(3-Chloro-4-fluorobenzyl)-5-[(3-fluoroazetidin-1-yl)carbonyl]-7-methyl-5,6,7,8-tetrahydro[1,2,4]triazolo[4,3-a]pyridin-3(2H)-one]
18 | 3.7 nM | CC1Cc2nn(Cc3ccc(C(F)(F)F)nc3)c(=O)n2C(C(=O)N2CC(F)C2)C1 (racemic) [Example 341, (5RS,7RS)-5-[(3-Fluoroazetidin-1-yl)carbonyl]-7-methyl-2-{[6-(trifluoromethyl)pyridin-3-yl]methyl}-5,6,7,8-tetrahydro[1,2,4]triazolo[4,3-a]pyridin-3(2H)-one]
19 | 189 nM | O=C(C1CCCc2nn(Cc3ncc(C(F)(F)F)cc3Cl)c(=O)n21)N1CC(O)C1 (racemic) [Example 403, (5RS)-2-{[3-Chloro-5-(trifluoromethyl)pyridin-2-yl]methyl}-5-[(3-hydroxyazetidin-1-yl)carbonyl]-5,6,7,8-tetrahydro[1,2,4]triazolo[4,3-a]pyridin-3(2H)-one]
20 | 18 nM | Cc1cc(Cn2nc3n(c2=O)C(C(=O)N2CC(F)C2)CCC3)on1 (racemic) [Example 417, (5RS)-5-[(3-Fluoroazetidin-1-yl)carbonyl]-2-[(3-methyl-1,2-oxazol-5-yl)methyl]-5,6,7,8-tetrahydro[1,2,4]triazolo[4,3-a]pyridin-3(2H)-one]
21 | 4.1 nM | Cc1ccc(C(C)n2nc3n(c2=O)[C@H](C(=O)N2CCCC2)CCC3)cc1 (mixture of isomers) [Example 502, (5S)-2-[(1 RS)-1-(4-Methylphenyl)ethyl]-5-(pyrrolidin-1-ylcarbonyl)-5,6,7,8-tetrahydro[1,2,4]triazolo[4,3-a]pyridin-3(2H)-one]
22 | 31 nM | O=C([C@@H]1CCCc2nn(Cc3cncc(Cl)c3)c(=O)n21)N1CC(F)C(F)C1 (mixture of isomers) [Example 548, (5S)-2-[(5-Chloropyridin-3-yl)methyl]-5-{[trans-3,4-difluoropyrrolidin-1-yl]carbonyl}-5,6,7,8-tetrahydro[1,2,4]triazolo[4,3-a]pyridin-3(2H)-one]
23 | 18 nM | O=C([C@@H]1CCCc2nn(Cc3ccc(Cl)nc3)c(=O)n21)N1CC(F)C(F)C1 (mixture of isomers) [Example 550, (5S)-2-[(6-Chloropyridin-3-yl)methyl]-5-{[trans-3,4-difluoropyrrolidin-1-yl]carbonyl}-5,6,7,8-tetrahydro[1,2,4]triazolo[4,3-a]pyridin-3(2H)-one]
